Source: patent publication EP1134585B1, “Biosensor and method for the monitoring of herbicides” (CONSIGLIO NAZIONALE DELLE RICERCHE, priority 2000, dated 2001)
Where two headings read alike, the source gives them in different places.

Columns and labels:
D1 protein Ala250->Asp = D1 protein Ala250->Asp (Chlamydomonas reinhardtii, UniProt P07753, A250D); settings: cited from earlier work
D1 protein A1a250->Tyr = D1 protein A1a250->Tyr (Chlamydomonas reinhardtii, UniProt P07753, A250Y); settings: cited from earlier work
D1 protein A1a250→IIe = D1 protein A1a250→IIe (Chlamydomonas reinhardtii, UniProt P07753, A250I); settings: cited from earlier work
[1] = test system: thylakoids from Amaranthus retroflexus, Mutant; assay type: biochemical; settings: herbicide concentration 10^-6 M
D1 protein A1a250->His = D1 protein A1a250->His (Chlamydomonas reinhardtii, UniProt P07753, A250H); settings: cited from earlier work
D1 protein Ala250->Arg = D1 protein Ala250->Arg (Chlamydomonas reinhardtii, UniProt P07753, A250R); settings: cited from earlier work
[2] = test system: PS II isolated from thermophilic cyanobacteria; settings: immobilized PS II, Clark electrode (Koblizek et al.); cited from earlier work
PS II = PS II treated with CdCl2, refrigeration at 5°C, flow 0,2-2,0 ml/m
Excerpt: To further increase the stability of the biomediator the usefulness of a system for the refrigeration of the solution containing herbicide forwarded into the measuring cell experimentally was observed.

[3] = target: D1 protein Ala250→Ser Phe255→IIe (Chlamydomonas reinhardtii, UniProt P07753, A250S/F255I); settings: cited from earlier work
[4] = test system: thylakoids from Amaranthus retroflexus, Wild-type; assay: Biosensor fluorescence response (Table D), wild-type biomediator; assay type: biochemical; settings: herbicide concentration 10^-6 M
[5] = target: D1 protein Phe255->Tyr Ser264->Ala (Synechococcus elongatus, UniProt P04996, F255Y/S264A); settings: code D5; cited from earlier work
D1 protein Ala250->Asn = D1 protein Ala250->Asn (Chlamydomonas reinhardtii, UniProt P07753, A250N); settings: cited from earlier work
D1 protein Ser264->Thr [6] = settings: Nicotiana tabacum (cell culture); cited from earlier work
[7] = test system: D1 protein Val219->Ile Thr220->Ala Ser270->Tyr; settings: code L5; cited from earlier work
[8] = target: D1 protein Phe211->Ile Met214->Gly (Chlamydomonas reinhardtii, UniProt P07753, F211I/M214G); settings: cited from earlier work
D1 protein Phe255->Tyr [9] = target: D1 protein Phe255->Tyr (Chlamydomonas reinhardtii, UniProt P07753, F255Y); settings: code Ar207+; cited from earlier work
D1 protein A1a251→Gly = D1 protein A1a251→Gly (Chlamydomonas reinhardtii, UniProt P07753, A251G); settings: cited from earlier work
D1 protein Phe255->Tyr [10] = target: D1 protein Phe255->Tyr (Synechococcus elongatus, UniProt P04996, F255Y); settings: Synachococcus PCC7942, code TyrS; cited from earlier work
Tyr222->Phe = settings: code T4; cited from earlier work
D1 protein Arg257->Val = D1 protein Arg257->Val (Synechocystis sp., UniProt P16033, R257V); settings: cited from earlier work
D1 protein Ser264->Thr [11] = settings: Euglena, code MSI; cited from earlier work
[12] = target: D1 protein Phe211→Gly Met214→Gln (Chlamydomonas reinhardtii, UniProt P07753, F211G/M214Q); settings: cited from earlier work
[13] = target: D1 protein Leu275->Phe (MZ4) (Chlamydomonas reinhardtii, UniProt P07753, L275F); settings: code MZ4; cited from earlier work
[14] = target: D1 protein Ser264→Ala Asn266→Thr (Chlamydomonas reinhardtii, UniProt P07753, N266T/S264A); settings: cited from earlier work
[15] = target: D1 protein I1e259->Ser Ser264->Ala Asn266->Thr (Chlamydomonas reinhardtii, UniProt P07753, I259S/N266T/S264A); settings: cited from earlier work
D1 protein Ser264->Ala [16] = target: D1 protein Ser264->Ala (Chlamydomonas reinhardtii, UniProt P07753, S264A); settings: codes MZ1 MZ3 MZ5; cited from earlier work
D1 protein Ser264->Ala [17] = target: D1 protein Ser264->Ala (Synechococcus elongatus, UniProt P04996, S264A); settings: Synechococcus sp. PCC7942, code Dil; cited from earlier work
D1 protein Val219->Ile = D1 protein Val219->Ile (Chlamydomonas reinhardtii, UniProt P07753, V219I); settings: code Dr2; cited from earlier work

| SMILES | Supersensitivity R/S (D1 protein Ala250->Asp) | Supersensitivity R/S (D1 protein A1a250->Tyr) | Area % inhibition Mutant [1] [%] | Supersensitivity R/S (D1 protein Ala250->Arg) | sensitivity (concentration) (PS II) | Supersensitivity R/S [3] | Area % inhibition Wild-type [4] [%] | Supersensitivity R/S [5] | Supersensitivity R/S (D1 protein Ala250->Asn) | also measured |
| --- | --- | --- | --- | --- | --- | --- | --- | --- | --- | --- |
| N#Cc1cc(Br)c(O)c(Br)c1 [Bromoxynil] | Bromoxynil 0,16 | Bromoxynil 0,4 | 95 | Bromoxynil 0,3 | one order of magnitude higher | 0,2 | 97 | 0,8 | Bromoxynil 0,2 | Supersensitivity R/S (D1 protein A1a250→IIe): Bromoxynil 0,3; Supersensitivity R/S (D1 protein A1a250->His): Bromoxynil 0,16; sensitivity [2]: 10^-7 mol/l |
| CCC(C)c1cc([N+](=O)[O-])cc([N+](=O)[O-])c1O (stereo not shown) [Dinoseb] |  |  | 93 |  |  |  | 99 | 0,08 |  | Supersensitivity R/S (D1 protein Ser264->Thr [6]): Dinoseb 0,13; Supersensitivity R/S [7]: Dinoseb 0,7 |
| CSc1nnc(C(C)(C)C)c(=O)n1N [Metribuzin] |  |  |  | Metribuzin 0,5 |  | 0,5 |  |  | Metribuzin 0,8 | Supersensitivity R/S [8]: 0,5; Supersensitivity R/S (D1 protein Phe255->Tyr [9]): Metribuzin 0,6; Supersensitivity R/S (D1 protein A1a251→Gly): Metribuzin 0,6; Supersensitivity R/S (D1 protein Phe255->Tyr [10]): Metribuzin 0,8 |
| N#Cc1cc(I)c(O)c(I)c1 [loxynil] | loxynil 0,2 | loxynil 0,8 |  | loxynil 0,5 | one order of magnitude higher | loxynil 0,2 |  | loxynil 0,5 |  | Supersensitivity R/S (Tyr222->Phe): Iloxynil <0,01; Supersensitivity R/S (D1 protein Arg257->Val): loxynil 0,8; Supersensitivity R/S (D1 protein Ser264->Thr [11]): loxynil 0,2; Supersensitivity R/S [12]: loxynil 0,8; Supersensitivity R/S [13]: locynil 0,2; Supersensitivity R/S [14]: loxynil 0,8; Supersensitivity R/S [15]: loxynil 0,13; Supersensitivity R/S (D1 protein Ser264->Ala [16]): loxynil 0,5; Supersensitivity R/S (D1 protein Ser264->Ala [17]): loxynil 0,4 |
| O=c1[nH]c2c(c(=O)n1C1CCCCC1)CCC2 [Lenacil] |  |  |  |  |  |  |  |  |  | Supersensitivity R/S (D1 protein Val219->Ile): Lenacil 0,8 |
